Data set [1] concerns normal breast epithelial cells (MCF-12A). The data set is described as follows: XTT viability assay, normal breast epithelial cells, 24-hour treatment with isolates. It counts as cell-based. The settings on record: 24 hour incubation, highest dose assessed, FIG. 4. The procedure: (§1) To calculate doses, the concentrations of the specific components for serving sizes of 15 mg, 30 mg and 60 mg per person per day for Δ7 mesembrenone, mesembrenone and non-alkaloids respectively were expressed as a fraction of total body fluid volume. In an attempt to account for digestive losses, these concentrations were halved, to reach cell-culture “equivalent” doses of 0.5 ug/ml, 1 ug/ml and 2 ug/ml respectively. Following standard laboratory practice, a range of doses around these was assessed. For clarity, only 3 concentrations per component are presented (doses of 10-fold smaller were also tested for ail components, but were not different from lowest doses presented herein and thus omitted).
(§2) Briefly, the procedure itself entailed 24-hour treatment of confluent cell culture samples of normal breast epithelial cells (MCF-12A) and breast epithelial carcinoma cells (MCF-7) with varying doses of the test products. At the end of this period, the mitochondrial viability of cells was assessed using the XTT assay method. Viability was measured and expressed relative to an appropriate control.
Results are illustrated in FIG. 4 of the accompanying drawings. Results are expressed as the percentage of viable cells after a 24 hour incubation with the test substances. […]

Data set [2] has as its system breast epithelial carcinoma cells (MCF-7). The data set is described as follows: XTT viability assay, breast epithelial carcinoma cells, 24-hour treatment with isolates. It counts as cell-based. The settings on record: 24 hour incubation, FIG. 4; for effect on viability of cancer cells: 3 concentrations per component around 0.5, 1 and 2 ug/ml respectively. The procedure:
as §1, §2
Results are illustrated in FIG. 4 of the accompanying drawings. Results are expressed as the percentage of viable cells after a 24 hour incubation with the test substances. Bars are means of repeated experiments (a minimum of 3 repeat experiments in triplicate) and error bars indicate standard deviations from the mean. Asterisk (*) indicate significant reductions in cancer cell viability.
(In general: Formazan colour is commonly taken as a measure of viable cells.)

Molecules are shown by their SMILES.

Consider `COc1ccc([C@@]23C=CC(=O)C[C@@H]2N(C)CC3)cc1OC` [mesembrenone], for which the “effect on normal cell survival” value in data set [1] is recorded as “seemed to limit growth of normal cells to some extent”. Further, in data set [2], the “effect on viability of cancer cells” value is given as “clear dose-response effects”.

For `COc1ccc(C23CCC(=O)C=C2N(C)CC3)cc1OC` (centres unmarked) [Δ7 mesembrenone], the “effect on normal cell survival” value in data set [1] is listed as “not affecting normal cell survival”. Besides, in data set [2], the “effect on viability of cancer cells” value is “clear dose-response effects”. In addition, the “anti-cancer effect compared with the other isolates” value in data set [2] (Δ7 mesembrenone dosed 50% less than mesembrenone) is recorded as “most potent anti-cancer effect”.
